Reference: PubChem BioAssay (NCI)
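Exposure lasted 48 hours, with cells grown in 96-well plates and compounds tested at five concentrations. Abbreviation: GI50, concentration required for 50% inhibition of growth. Definition used: TGI = concentration required for complete inhibition of growth.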

What was measured:
Experiment in all cases: NCI-60 cell line screen, 48 h
[1] = system: MALME-3M melanoma
[2] = system: SNB-75 CNS
[3] = system: SK-OV-3 ovarian
[4] = system: SK-MEL-28 melanoma
[5] = system: ACHN renal
[6] = system: SF-539 CNS
[7] = system: MOLT-4 leukemia
[8] = system: T-47D breast
[9] = system: HCC-2998 colon
[10] = system: MDA-MB-435

Row | SMILES | GI50 [1] | TGI [1] | GI50 [2] | TGI [2] | GI50 [3] | TGI [3] | GI50 [4] | TGI [4] | GI50 [5] | TGI [5] | GI50 [6] | TGI [6] | GI50 [7] | TGI [7] | GI50 [8] | TGI [8] | TGI [9] | TGI [10] | GI50 [10] | GI50 [9]
1 | NCC(=O)Nc1ccc(-n2nc(C(F)(F)F)cc2-c2ccc3c(ccc4ccccc43)c2)cc1 | 1.83 µM | 3.51 µM | 1.26 µM | 2.79 µM | 1.27 µM | 2.54 µM | 1.45 µM | 2.81 µM | 1.23 µM | 2.54 µM | 1.06 µM | 2.41 µM | 0.809 µM | 4.01 µM | 1.62 µM | 3 µM |  |  |  | 
2 | Cc1c(NC(=O)CCCl)c(=O)oc2c(C)c3occc(=O)c3cc12 |  | > 100 µM |  | > 100 µM |  | > 100 µM |  | > 100 µM |  | > 100 µM |  |  |  | > 100 µM |  | > 100 µM | > 100 µM |  |  | 
3 | O=c1oc2c(Br)c(O)c(Br)cc2c2ccccc12 |  | 64.8 µM |  | 78.9 µM |  |  |  | > 100 µM |  | > 100 µM |  | 63.3 µM |  | 67.1 µM |  | 96.5 µM | 72.4 µM | > 100 µM |  | 
4 | CCc1ccc(/C(C#N)=C/C=C/c2ccccc2)cc1 | 6.05 µM | > 100 µM |  |  | 3.08 µM | > 29.3 µM | 7.12 µM | > 100 µM | 8.41 µM | > 100 µM | 1.52 µM | 4.69 µM | 6.87 µM | > 83.9 µM | 2.4 µM | > 100 µM | 68.3 µM | 1.16 µM | 0.299 µM | 6.65 µM
5 | CCC[CH2][Sn]([CH2]CCC)([O]C(=O)c1cc(OC)c(OC)c(OC)c1)[O]C(=O)c1cc(OC)c(OC)c(OC)c1 | 0.946 µM | 2.17 µM | 0.169 µM | 1.29 µM | 1.69 µM | 3.25 µM | 0.633 µM | 1.99 µM | 1.59 µM | 2.98 µM | 0.788 µM | 2.12 µM | 0.505 µM | 4.11 µM |  |  |  |  |  | 
6 | CC(=O)NC(ON1C(=O)COc2ccccc21)C(Cl)(Cl)Cl (stereo not drawn) |  | > 100 µM |  | > 100 µM |  | > 100 µM |  | > 100 µM |  | > 100 µM |  | > 100 µM |  | > 100 µM |  |  | > 100 µM |  |  | 
7 | CC(=O)c1cc2c3c(c1)c1cc4c(cc1c(=O)n3CC2)OCO4 |  | > 100 µM |  | > 100 µM |  | > 100 µM |  | > 100 µM |  | > 100 µM |  | > 100 µM |  | 9.92 µM |  |  | > 100 µM |  |  | 
8 | O=C1OCC2=C1C(c1cccc([N+](=O)[O-])c1)c1cc3c(cc1N2CCO)CCC3 (stereo not drawn) | 0.504 µM | 35.1 µM | 0.0513 µM | 0.363 µM | 0.226 µM | > 50 µM | 1.3 µM | > 39.9 µM | 0.398 µM | > 50 µM | 0.11 µM | 0.38 µM | 0.254 µM | 43.3 µM | 0.355 µM | > 50 µM | 9.58 µM |  |  | 0.188 µM
9 | CCOC(=O)CC(=O)N(c1ccc(OC)cc1)C(C(=O)OC)c1ccccc1 (stereo not drawn) |  |  |  | > 100 µM |  |  |  | > 100 µM |  | > 100 µM |  | > 100 µM |  |  |  | > 100 µM |  | > 100 µM |  | 
10 | O=S1Cc2ccccc2CS1 (stereo not drawn) |  | 26.4 µM |  | 61.5 µM |  | > 100 µM |  | 28.3 µM |  | > 100 µM |  | 24.5 µM |  | 56 µM |  |  | 93.2 µM |  |  | 
